Assay results: US5079261A, “Use of lipoxin A4 and its derivatives as antagonists for slow-reacting substances of anaphylaxis” (Brigham and Women's Hospital, priority 1989, dated 1992)

Key:
renal arterioles = details: renal artery, anesthetized rats; cited from earlier work
vascular smooth muscle = details: cited from earlier work
[1] = Renal function in vivo in anesthetized rats (AP, Hct, RPF, GFR) during intrarenal arterial infusion; design: species or system male Munich-Wistar rats; details: for AP / GFR / Hct / RPF: LXA4 20-min infusion, n=3
Description: Statistical: ANOVA with Bonferroni modification for multiple pre-planned comparisons was used, within each group and between groups, to compare the changes in various whole kidney and microcirculatory indices which occurred from one period to another. In phosphoinositide generation studies, increases in [^3 H]-IP3 CPMs in agonist-treated cells were compared to vehicle-treated controls using upaired students t-test. Differences were considered significant at a p value ≤0.05. All values are reported as means ± SEM.
Inulin and para-aminohippurate (PAH) clearances Were used to measure GFR and effective RPF. A needle was placed at the take-off of the left renal artery through which a maintenance infusion of 0.9% NaCl at a rate of 0.05 ml/min was initiated. […] Two experimental groups
Group I (n=14). First period: Clearances were performed during vehicle infusion.
Group II (n=12). First period: Clearances were performed during vehicle infusion.

hamster cheek pouch = details: topical; cited from earlier work
LTD4 receptor = assay: Inhibition of LTD4-induced IP3 formation in mesangial cells; type: cell-based, rat
Protocol: Mesangial Cell Culture: Rat mesangial cells were isolated and cultured as described previously (Harris, R. C., et al., J. Clin. Invest. 82:1028-1039(1988). Briefly, kidneys were exicesed from two young Sprague-Dawly rats under sterile conditions, and the cortices removed, minced, and washed several times in Hank's Balanced Salt Solution, containing 10 mM HEPES pH 7.4, amphotericin (0.25 μg/ml), and gentamicin (50 μg/ml). The tissue was then passed through consecutive sterilized stainless mesh filters with pore sizes of 212 μm, 150 μm, and then onto the final mesh of 75 μm. The isolated glomeruli were harvested from the surface of the 75 μm. The isolated glomeruli were harvested from the surface of the 75 μm filter and washed twisce with the Hank's Media. The glomeruli were suspended in RPMI 1640 Medium with 15% Fetal Bovine Serum (Givco), penicillin (100 μ/ml) and streptomycin (100 μg/ml) (Gibco), plated into 100 mm cell culture petri dishes, and incubated at 37° C. in a humidified atmosphere of 95% air and […] 5% CO2. Mesangial cell colonies were subcultured in 60 mm culture dishes, and experiments were carried out in cells from passages 2 to 12. The criteria used to establish the identify of mesangial cells were as described previously (Harris, R. C., et al., J. Clin. Invest. 82:1028-1039 (1988)). Cells were routinely grown in RPMI-1640, supplemented with 20% fetal calf serum, penicillin 100 μ/ml, and streptomycin 100 μg/ml. […] All eicosanoids were stored under argon at -70° C. in methanol and their purity and quantity verified periodically by ultraviolet scanning and high pressure liquid chromatography (Serhan, C. N. et al., J. Biol. Chem. 261:16340 (1986)).
To label mesangial cells with [^3 H]-Inositol, cells grown to confluence in 60 mm culture dishes (10^6 cells/dish) were cultured in RPMI, supplemented with 10% dialyzed fetal calf serum and [^3 H]-inositol (1 μCi/ml) in a total incubation volume of 5 ml.
Reactions were terminated by the addition of cold 10% trichloroacetic acid (TCA), the supernatants subjected to ether extraction, and the aqueous phase titrated to neutral pH using 0.1 M Tris base. [^3 H]-IP1, [^3 H]-IP2, and [^3 H]-IP3 in the aqueous phase were separated and quantitated by anion exchange column chromatography, using the method of Berridge et al. (Berridge, M. J., Biochem. J. 220:345-360 (1984)). To ensure the reliability of the separation technique, the same methods for extraction and separation were applied to known amounts of [^3 H]-IP1, [^3 H]IP2, and [^3 H]-IP3 standards (New England Nuclear) mixed in a ratio of 3:2:1, respectively, and subjected to separation by HPLC. The latter was performed using established methodology described previously (Cunha-Melo, J. R., et al., J. Biol. Chem. 262:11455-11463 (1987)).

[2] = biological target: T1, mesangial cell LTD4 receptor (Rattus norvegicus, UniProt Q924T8); assay: biochemical
T1 sequence (Q924T8 1-339): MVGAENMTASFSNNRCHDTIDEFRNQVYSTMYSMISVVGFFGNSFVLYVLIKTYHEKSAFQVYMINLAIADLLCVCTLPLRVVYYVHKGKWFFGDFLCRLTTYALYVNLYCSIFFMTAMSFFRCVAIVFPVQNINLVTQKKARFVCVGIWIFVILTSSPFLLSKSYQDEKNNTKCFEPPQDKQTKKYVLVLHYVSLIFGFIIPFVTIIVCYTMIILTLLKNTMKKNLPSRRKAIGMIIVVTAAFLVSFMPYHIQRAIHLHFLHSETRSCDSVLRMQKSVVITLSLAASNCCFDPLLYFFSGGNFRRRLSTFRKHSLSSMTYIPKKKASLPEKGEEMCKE
Protocol: Mesangial Cell Culture: Rat mesangial cells were isolated and cultured as described previously (Harris, R. C., et al., J. Clin. Invest. 82:1028-1039(1988). Briefly, kidneys were exicesed from two young Sprague-Dawly rats under sterile conditions, and the cortices removed, minced, and washed several times in Hank's Balanced Salt Solution, containing 10 mM HEPES pH 7.4, amphotericin (0.25 μg/ml), and gentamicin (50 μg/ml). The tissue was then passed through consecutive sterilized stainless mesh filters with pore sizes of 212 μm, 150 μm, and then onto the final mesh of 75 μm. The isolated glomeruli were harvested from the surface of the 75 μm. The isolated glomeruli were harvested from the surface of the 75 μm filter and washed twisce with the Hank's Media. The glomeruli were suspended in RPMI 1640 Medium with 15% Fetal Bovine Serum (Givco), penicillin (100 μ/ml) and streptomycin (100 μg/ml) (Gibco), plated into 100 mm cell culture petri dishes, and incubated at 37° C. in a humidified atmosphere of 95% air and 5% air and 5% CO2. Mesangial cell colonies were subcultured in 60 mm culture dishes, and experiments were carried out in cells from passages 2 to 12. […] Cells were routinely grown in RPMI-1640, supplemented with 20% fetal calf serum, penicillin 100 μ/ml, and streptomycin 100 μg/ml.
Binding studies were routinely performed at 4° C. […] The cells were then dissolved with 1.0 ml of 1.0 N NaOH, neutralized with HCl, dissolved in 10 ml of Aquasol (New England Nuclear, Boston, MA), and the bound radioactivity was determined using a scintillation counter (Beckman Instruments). […] Cell density was determined by counting cells from replicate wells, using a Coulter Counter ZBi (Coulter Electronics, Inc., Hialeah, Fla.).

guinea pig lung = details: cited from earlier work
[3] = Group II, third period, LTD4 in the presence of LXA4
[4] = LTD4 14.0 μg/kg/min + LXA4, p<0.05 vs baseline
[5] = LTD4 20.0 μg/kg/min + LXA4, p<0.05 vs baseline

## CCCCC[C@H](O)/C=C/C=C\C=C\C=C\[C@@H](O)[C@@H](O)CCCC(=O)O [LXA4, (5S,6R,15S)-5,6,15-trihydroxy-7,9,13-trans-11-cis-eicosatetraenoic acid]
Renal arterioles
  Glomerular capillary ultrafiltration coefficient (Kf): reduces
  Renal arteriole response: elicits vasodilator responses
Vascular smooth muscle
  Concentration that relaxes (dilates) vascular smooth muscle: less than 1 μM
[1]; Group II, LXA4 infusion, period 2
  GFR and RPF change (in words): moderate increases
[1]; Group II, period 2, subgroup A
  AP: 121 ± 4 mmHg
  GFR: 1.20 ± 0.20 mL/min
  Hct: 43.7 ± 0.9 Vol./dl
  RPF: 4.50 ± 0.08 mL/min
[1]; Group II, period 2, subgroup B
  AP: 120 ± 0 mmHg
  GFR: 0.98 ± 0.06 mL/min
  Hct: 44.7 ± 1.2 Vol./dl
  RPF: 4.76 ± 0.83 mL/min
[1]; Group II, period 2, subgroup C
  AP: 127 ± 2 mmHg
  GFR: 1.30 ± 0.10 mL/min
  Hct: 45.2 ± 0.7 Vol./dl
  RPF: 4.87 ± 0.10 mL/min
[1]; Group II, period 2, subgroup D
  AP: 108 ± 3 mmHg
  GFR: 1.27 ± 0.04 mL/min
  Hct: 44.5 ± 0.3 Vol./dl
  RPF: 4.58 ± 0.20 mL/min
[1]; [3]
  Effect on LTD4-induced falls in RPF: without effect
  Effect on LTD4-provoked reduction in GFR: marked blunting
[1]; LTD4 0.5 μg/kg/min + LXA4
  Mean percent fall in GFR during LTD4 in the presence of LXA4: 9%
[1]; LTD4 0.5 μg/kg/min + LXA4, p<0.05 vs baseline
  Mean percent fall in RPF during LTD4 in the presence of LXA4: 20%
[1]; LTD4 7.0 μg/kg/min + LXA4
  Mean percent fall in GFR during LTD4 in the presence of LXA4: 11%
[1]; LTD4 7.0 μg/kg/min + LXA4, p<0.05 vs baseline
  Mean percent fall in RPF during LTD4 in the presence of LXA4: 37%
[1]; [4]
  Mean percent fall in GFR during LTD4 in the presence of LXA4: 42%
  Mean percent fall in RPF during LTD4 in the presence of LXA4: 51%
[1]; [5]
  Mean percent fall in GFR during LTD4 in the presence of LXA4: 50%
  Mean percent fall in RPF during LTD4 in the presence of LXA4: 68%
Hamster cheek pouch
  Arteriolar dilation: pronounced arteriolar dilation
  Venular diameters: does not change venular diameters
LTD4 receptor; pre-incubation with 100 nM LXA4 for 10 min, then 10 nM LTD4 (n=3)
  Inhibition of LTD4-induced IP3 generation: completely prevented
LTD4 receptor; preexposure to 100 nM LXA4 for 10 minutes
  Inhibition of LTD4-induced stimulation of IP3 formation (FIG. 2): abrogation
[2]
  IC50: 100 nM
Guinea pig lung
  Contraction of pulmonary smooth muscle: contract pulmonary smooth muscle
